Data reported in patent US12577217B2, “15-PGDH inhibitor” (KYORIN Pharmaceutical Co., Ltd., priority 2019, dated 2026).

What follows are compounds tested against T1, recombinant human 15-PGDH (Homo sapiens, UniProt P15428) (assay: 15-PGDH enzyme inhibition test). Conditions: 4 nM recombinant human 15-PGDH, 30 μM PGE2, 1 mM NAD+, 60 minutes after starting the reaction; read-out: IC50 Value.
T1 construct: purchased R&D Systems
T1 sequence (P15428 1-266): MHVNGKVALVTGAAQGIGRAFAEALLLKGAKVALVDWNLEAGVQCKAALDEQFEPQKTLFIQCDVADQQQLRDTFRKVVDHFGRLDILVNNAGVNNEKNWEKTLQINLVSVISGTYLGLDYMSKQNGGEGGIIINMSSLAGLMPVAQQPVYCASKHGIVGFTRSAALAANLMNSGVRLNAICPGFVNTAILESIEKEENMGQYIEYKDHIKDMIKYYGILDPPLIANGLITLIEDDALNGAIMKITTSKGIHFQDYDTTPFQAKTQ
Assay type: biochemical
In short: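 Fluorescence (excitation 340 nm, emission 440 nm) measured 60 min after adding 1 mM NAD+ and 30 μM PGE2 to 4 nM recombinant human 15-PGDH, which had stood 12 min at room temperature with compound in pH 8.0 Tris-HCl buffer. Concentration-response curves yield IC50, binned into potency categories.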

IC50	Structure (SMILES)
< 10 nM	CC(C)(O)c1ccc(N2CCOc3c2ccc(C(=O)N2CCCCC2)c3Cl)cc1 [Example 10-2]
< 10 nM	COC(=O)c1nc2ccc(N3CCOc4cc(C(=O)N5CCCCC5)cnc43)cc2s1 [Example 11-3]
10 to 100 nM	Cn1nc2cc(N3CCOc4cc(C(=O)N5CCCCC5)cnc43)cc(-n3ccnc3)n2c1=O [Example 11-4]
> 100 nM	COC(=O)c1ccc2nc(N3CCOc4cc(C(=O)N5CCCCC5)cnc43)cn2c1 [Example 11-5]
< 10 nM	COC(=O)c1ccc2cc(N3CCOc4cc(C(=O)N5CCCCC5)cnc43)nn2c1 [Example 11-6]
< 10 nM	O=C(c1cnc2c(c1)OCCN2c1ccc2c(=O)[nH]oc2c1)N1CCCCC1 [Example 14-1]
< 10 nM	O=C1NCc2cc(N3CCOc4cc(C(=O)N5CCCCC5)cnc43)ccc21 [Example 14-2]
< 10 nM	O=C1NCc2cc(N3CCOc4cc(C(=O)N5CCC(F)(F)CC5)ccc43)ccc21 [Example 14-3]
< 10 nM	O=C1NCc2cc(N3CCCc4cc(C(=O)N5CCCCC5)cnc43)ccc21 [Example 14-4]
< 10 nM	O=C1NCc2cc(N3CCCc4cc(C(=O)N5CCC(F)(F)CC5)cnc43)ccc21 [Example 14-5]
< 10 nM	O=C1NCc2cc(N3CCOc4cc(C(=O)N5CCC(F)(F)CC5)cnc43)ccc21 [Example 14-6]
< 10 nM	O=C(c1cnc2c(c1)CCCN2c1ccc(-c2nn[nH]n2)cc1)N1CCCCC1 [Example 14-7]
< 10 nM	O=C(c1cnc2c(c1)OCCN2c1ccc2c(=O)[nH]ncc2c1)N1CCCCC1 [Example 14-8]
< 10 nM	O=C1NCc2cc(N3CCOc4cc(C(=O)N5CCCCC5)cnc43)ncc21 [Example 14-9]
< 10 nM	O=C(c1cnc2c(c1)OCCN2c1ccc(-c2nnn[nH]2)cc1)N1CCCCC1 [Example 14-10]
< 10 nM	CC(C)(O)Cn1nc2cc(N3CCOc4cc(C(=O)N5CCCCC5)cnc43)ccn2c1=O [Example 15-1, 2-(2-Hydroxy-2-methylpropyl)-7-(7-(piperidine-1-carbonyl)-2,3-dihydro-4H-pyrido[3,2-b][1,4]oxazin-4-yl)-[1,2,4]triazolo[4,3-a]pyridin-3(2H)-one]
< 10 nM	CCCN(C)C(=O)c1cnc2c(c1)OCCN2c1ccn2c(=O)n(C)nc2c1 [Example 17-1, N-Methyl-4-(2-methyl-3-oxo-2,3-dihydro-[1,2,4]triazolo[4,3-a]pyridin-7-yl)-N-propyl-3,4-dihydro-2H-pyrido[3,2-b][1,4]oxazine-7-carboxamide]
< 10 nM	CN(CC1CCCC1)C(=O)c1cnc2c(c1)OCCN2c1ccn2c(=O)n(C)nc2c1 [Example 17-3]
< 10 nM	CO[C@@H]1CCCN(C(=O)c2cnc3c(c2)OCCN3c2ccn3c(=O)n(C)nc3c2)C1 [Example 18-1, (R)-7-(7-(3-Methoxypiperidine-1-carbonyl)-2,3-dihydro-4H-pyrido[3,2-b] [1,4]oxazin-4-yl)-2-methyl-[1,2,4]triazolo[4,3-a]pyridin-3(2H)-one]
< 10 nM	CO[C@H]1CCCN(C(=O)c2cnc3c(c2)OCCN3c2ccn3c(=O)n(C)nc3c2)C1 [Example 18-2]
< 10 nM	Cn1nc2cc(N3CCOc4cc(C(O)C5CCCCC5)cnc43)ccn2c1=O (centres unmarked) [Example 19-1, 7-(7-(Cyclohexyl(hydroxy)methyl)-2,3-dihydro-4H-pyrido[3,2-b] [1,4]oxazin-4-yl)-2-methyl-[1,2,4]triazolo[4,3-a]pyridin-3 (2H)-one]

IC50	Structure (SMILES)
10 to 100 nM	Cn1nc2cc(N3CCOc4cc(C(O)C5CCC(F)(F)CC5)cnc43)ccn2c1=O (centres unmarked) [Example 19-2]
< 10 nM	O=C(O)c1ccc(N2CCOc3cc(C(=O)N4CCCCC4)cnc32)cc1F [Example 20-1, 2-Fluoro-4-(7-(piperidine-1-carbonyl)-2,3-dihydro-4H-pyrido[3,2-b][1,4]oxazin-4-yl)benzoic Acid]
< 10 nM	O=C(c1cnc2c(c1)OCCN2c1ccn2c(=O)n(-c3ccccc3)nc2c1)N1CCCCC1 [Example 21-1, 2-Phenyl-7-(7-(piperidine-1-carbonyl)-2,3-dihydro-4H-pyrido[3,2-b] [1,4]oxazin-4-yl)-[1,2,4]triazolo[4,3-a]pyridin-3 (2H)-one]
10 to 100 nM	Cn1nc2cc(N3CC(F)(F)COc4cc(C(=O)N5CCCCC5)cnc43)ccn2c1=O [Example 22-1, 7-(3,3-Difluoro-8-(piperidine-1-carbonyl)-3,4-dihydropyrido[3,2-b][1,4]oxazepin-5(2H)-yl)-2-methyl-[1,2,4]triazolo[4,3-a]pyridin-3 (2H)-one]
> 100 nM	Cc1cc(N2CCOc3cc(C(=O)N4CCCCC4)ccc32)n2ncnc2n1 [Example 24-1, (4-(5-Methyl-[1,2,4]triazolo[1,5-a]pyrimidin-7-yl)-3,4-dihydro-2H-benzo[b][1,4]oxazin-7-yl)(piperidin-1-yl)methanone]
10 to 100 nM	Cc1nccc(N2CCOc3cc(C(=O)N4CCC(F)(F)CC4)ccc32)n1 [Example 24-3]
< 10 nM	O=C(c1cnc2c(c1)OCCN2c1ccc2c(c1)CN(CO)C2=O)N1CCC(F)(F)CC1 [Example 25-1, 5-(7-(4,4-Difluoropiperidine-1-carbonyl)-2,3-dihydro-4H-pyrido[3,2-b]oxazin-4-yl)-2-(hydroxymethyl)isoindolin-1-one]
< 10 nM	O=C(c1cnc2c(c1)CCCN2c1ccn2c(=O)n(C3CC3)nc2c1)N1CCCCC1 [Example 26-1, 2-Cyclopropyl-7-(6-(piperidine-1-carbonyl)-3,4-dihydro-1,8-naphthylidin-1(2H)-yl)-[1,2,4]triazolo[4,3-a]pyridin-3(2H)-one]
< 10 nM	O=C(c1cnc2c(c1)OCCN2c1ccn2c(=O)n(C3CC3)nc2c1)N1CCCCC1 [Example 26-2]
< 10 nM	O=C(c1cnc2c(c1)OCCN2c1ccn2c(=O)n(Cc3ccc(F)cc3)nc2c1)N1CCCCC1 [Example 27-1]
< 10 nM	O=C(c1cnc2c(c1)OCCN2c1ccn2c(=O)n(Cc3ccnc(Cl)c3)nc2c1)N1CCCCC1 [Example 27-2]
< 10 nM	O=C(c1cnc2c(c1)OCCN2c1ccn2c(=O)n(CC(F)(F)F)nc2c1)N1CCCCC1 [Example 27-3]
< 10 nM	O=C(c1cnc2c(c1)OCCN2c1ccn2c(=O)n(Cc3ccc(F)cc3)nc2c1)N1CCC(F)(F)CC1 [Example 27-4]
< 10 nM	O=C(c1cnc2c(c1)OCCN2c1ccn2c(=O)n(Cc3ccc(F)cc3F)nc2c1)N1CCC(F)(F)CC1 [Example 27-5]
< 10 nM	O=C(c1cnc2c(c1)OCCN2c1ccn2c(=O)n(Cc3ccc(F)c(F)c3)nc2c1)N1CCC(F)(F)CC1 [Example 27-6]
< 10 nM	O=C(c1cnc2c(c1)OCCN2c1ccn2c(=O)n(Cc3ccnc(Cl)c3)nc2c1)N1CCC(F)(F)CC1 [Example 27-7]
< 10 nM	O=C(c1cnc2c(c1)OCCN2c1ccn2c(=O)n(CC(F)(F)F)nc2c1)N1CCC(F)(F)CC1 [Example 27-8]
< 10 nM	Cn1nc2cc(N3CCNc4cc(C(=O)N5CCC(F)(F)CC5)cnc43)ccn2c1=O [Example 28-2]
< 10 nM	CN1CCN(c2ccn3c(=O)n(C)nc3c2)c2ncc(C(=O)N3CCCCC3)cc21 [Example 29-1, 2-Methyl-7-(l-methyl-7-(piperidine-1-carbonyl)-2,3-dihydropyrido[2,3-b]pyrazin-4(1H)-yl)-[1,2,4]triazolo[4,3-a]pyridin-3(2H)-one]
< 10 nM	COCCN1CCN(c2ccn3c(=O)n(C)nc3c2)c2ncc(C(=O)N3CCCCC3)cc21 [Example 29-2]
